The values that follow come from patent US20250276973A1, “CRYSTAL OF 7H-PYRROLO[2,3-D]PYRIMIDINE-4-AMINE DERIVATIVE” (TAIHO PHARMACEUTICAL CO., LTD., priority 2022, published 2025).

The nature of series [1]: Solid stability test (4 weeks of storage at 80° C., closed system; HPLC). In kind it is physicochemical. The settings on record: for Chemical purity after 4 weeks of storage at 80° C. / Solid stability (result in words): 80° C. (closed system), 4 weeks; for Chemical purity after 4 weeks of storage at 80° C.: glass bottle; for Chemical purity after 4 weeks of storage at 80° C. / Chemical purity before storage: HPLC; for Solid stability (result in words): related substances by HPLC; for Change (chemical purity): after 4 weeks at 80° C. versus before storage; for Chemical purity before storage: UV 220. The method, then:
The solid stability of the type II crystal of Compound (1) in free form, the type III crystal of Compound (1) in free form, the type VII crystal of Compound (1) in free form, and the type VIII crystal of Compound (1) in free form obtained in the examples, reference example, and comparative example were evaluated after 4 weeks of storage by the following procedure. • Storage conditions: 80° C. (closed system) (HIFLEX (high-temperature storage chamber manufactured by ETAC)) • Storage period: 4 weeks • Storage volume: Approximately 30 mg • Storage container: Glass bottle
Changes in the mass of the related substances (the amounts of detected substances other than Compound (1)) were analyzed by HPLC according to the following method. Approximately 8 mg of each sample was weighed and dissolved in I mL of a chloroform-methanol mixture (1:1 v/v). Fifty μL of this solution was measured and diluted with 950 μL of an acetonitrile-water mixture (7:3), and 5 μL of the resulting solution was accurately measured and used as the sample for the analysis.
The mass of the related substances in the sample solution was determined by HPLC analysis. The instrument, including data processing, was handled in accordance with the method and procedure indicated for each instrument. • Column: InertSustainSwift C18 (2.1×50 mm, 1.9 μm) manufactured by GL Sciences • UV detection: […] • Column temperature: 40° C. • Flow rate: 0.3 mL/min • Sample cooler: 10° C. • Sample concentration: 0.1 mg/mL • Mobile phase A: 10 mmol/L phosphate buffer (pH 6.8)/acetonitrile (95:5) mixture • Mobile phase B: Acetonitrile • The gradients are shown in Table 4.
The solid stability of the type III crystal of Compound (1) with succinic acid, the type I crystal of Compound (1) with citric acid, the type IV crystal of Compound (1) with citric acid, the type I crystal of Compound (1) with sorbic acid, and the type I crystal of Compound (1) with phosphoric acid obtained in the examples, reference example, and comparative examples were evaluated after 4 weeks of storage. The evaluation method, storage, and measurement conditions were as described in Test Example 1.

The nature of series [2]: Dynamic vapor sorption (DVS) test. The settings on record: 25° C.; for Hygroscopicity (result in words): 5 to 95% RH; for Reversibility of water adsorption when the humidity was decreased: decrease from 95% to 5% RH. In kind it is physicochemical. How it is done:
Vapor sorption tests were performed using the type II crystal of Compound (1) in free form, the type III crystal of Compound (1) in free form, the type VII crystal of Compound (1) in free form, and the type VIII crystal of Compound (1) in free form obtained in the examples, reference example, and comparative example.
Vapor sorption tests were conducted under the following conditions.
Approximately 10 mg of the sample was filled into a specialized quartz holder to continuously measure and record the weight of the sample at each humidity was under the following conditions. The instrument, including data processing, was handled in accordance with the method and procedure indicated for each instrument. • Instrument: VTI-SA+(manufactured by TA Instruments) • Drying temperature: 60° C. • Heating rate: 1° C./min • Equilibration of drying: Confirmation of no more than 0.01 wt % decrease in 5 minutes within a period not exceeding 300 minutes • Measurement temperature: 25° C. • Equilibration of humidification: Confirmation of no more than 0.01 wt % increase in 5 minutes within a period not exceeding 120 minutes • Relative humidity program: Increase from 5 to 95% RH in increments of 5% RH, and decrease from 95% to 5% RH in increments of 5% RH. • Changes in the weight over the range of the measurement conditions obtained in these tests are shown in FIGS. 9 through 12.
Vapor sorption tests were performed using the type III crystal of Compound (1) with succinic acid, the type I crystal of Compound (1) with citric acid, the type IV crystal of Compound (1) with citric acid, the type I crystal of Compound (1) with sorbic acid, and the type I crystal of Compound (1) with phosphoric acid obtained in the examples, reference example, and comparative examples.
Vapor sorption tests were conducted under the same conditions as in Test Example 2.

Setting [3] is: listed as type III crystal of Compound (1) in free form.

As for `C#Cc1c(-c2cnc3ccccc3c2)c2c(N)ncnc2n1C12CCC(NC(=O)c3cnc(C)cn3)(CC1)C2` [Type III crystal in free form, N-(4-(4-amino-6-ethynyl-5-(quinolin-3-yl)-7H-pyrrolo[2,3-d]pyrimidin-7-yl)bicyclo[2.2.1]heptan-1-yl)-5-methylpyrazine-2-carboxamide], in series [1], the “Chemical purity after 4 weeks of storage at 80° C.” value (shortened to “Chemical purity after 4 weeks”) was found to be 99.60%, the “Change (chemical purity)” value is listed as “+0.02%” and the “Chemical purity before storage” value was determined as 99.58%. Besides, the “Solid stability (result in words)” value in series [1] (setting [3]) is recorded as “extremely stable crystals with almost no increase in the related substances”. Further, the “Hygroscopicity (result in words)” value in series [2] is recorded as “low hygroscopicity as long as RH is less than 65%”. Also, in series [2] (setting [3]), the “Hygroscopicity (result in words)” value is on record as “hygroscopicity that sharply increased at above 65% RH” and the “Reversibility of water adsorption when the humidity was decreased” value is listed as “reversible”.

With `C#Cc1c(-c2cnc3ccccc3c2)c2c(N)ncnc2n1C12CCC(NC(=O)c3cnc(C)cn3)(CC1)C2` [Type VII crystal in free form, N-(4-(4-amino-6-ethynyl-5-(quinolin-3-yl)-7H-pyrrolo[2,3-d]pyrimidin-7-yl)bicyclo[2.2.1]heptan-1-yl)-5-methylpyrazine-2-carboxamide], in series [1], the “Chemical purity after 4 weeks” value worked out at 99.63% and the “Chemical purity before storage” value is reported as 99.63%. Further, the “Solid stability (result in words)” value in series [1] (listed as type VII crystal of Compound (1) in free form) was “extremely stable crystals with almost no increase in the related substances”. In addition, in series [2], the “Hygroscopicity (result in words)” value is “highly hygroscopic” and the “Reversibility of water adsorption when the humidity was decreased” value is reported as “irreversible”.

With `C#Cc1c(-c2cnc3ccccc3c2)c2c(N)ncnc2n1C12CCC(NC(=O)c3cnc(C)cn3)(CC1)C2` [Type I crystal of Compound (1) with phosphoric acid] [N-(4-(4-amino-6-ethynyl-5-(quinolin-3-yl)-7H-pyrrolo[2,3-d]pyrimidin-7-yl)bicyclo[2.2.1]heptan-1-yl)-5-methylpyrazine-2-carboxamide], in series [1], the “Chemical purity after 4 weeks” value is 99.50%, the “Solid stability (result in words)” value is reported as “unstable crystals with decreases in purity”, the “Change (chemical purity)” value is listed as −0.40% and the “Chemical purity before storage” value came to 99.90%. Also, the “Hygroscopicity (result in words)” value in series [2] is given as “highly hygroscopic”.

Turning to `C#Cc1c(-c2cnc3ccccc3c2)c2c(N)ncnc2n1C12CCC(NC(=O)c3cnc(C)cn3)(CC1)C2` [Type IV crystal of Compound (1) with citric acid] [N-(4-(4-amino-6-ethynyl-5-(quinolin-3-yl)-7H-pyrrolo[2,3-d]pyrimidin-7-yl)bicyclo[2.2.1]heptan-1-yl)-5-methylpyrazine-2-carboxamide], in series [1], the “Chemical purity after 4 weeks” value was determined as 93.49%, the “Solid stability (result in words)” value is reported as “unstable crystals with decreases in purity”, the “Change (chemical purity)” value is −6.42% and the “Chemical purity before storage” value is 99.91%. The “Hygroscopicity (result in words)” value in series [2] was “highly hygroscopic”.

`C#Cc1c(-c2cnc3ccccc3c2)c2c(N)ncnc2n1C12CCC(NC(=O)c3cnc(C)cn3)(CC1)C2` [Type I crystal of Compound (1) with citric acid] [N-(4-(4-amino-6-ethynyl-5-(quinolin-3-yl)-7H-pyrrolo[2,3-d]pyrimidin-7-yl)bicyclo[2.2.1]heptan-1-yl)-5-methylpyrazine-2-carboxamide]: in series [1], the “Chemical purity after 4 weeks” value came out at 99.03%, the “Solid stability (result in words)” value is on record as “unstable crystals with decreases in purity”, the “Change (chemical purity)” value is −0.72% and the “Chemical purity before storage” value is 99.75%. In series [2], the “Hygroscopicity (result in words)” value was “highly hygroscopic”.
